Measurements from patent US12336971B2, “Ophthalmic pharmaceutical compositions and uses thereof” (ALCON INC., priority 2021, dated 2025).
Like-named read-outs stand apart in the source and are kept apart here.

Legend:
[1] = Loss of WS-12 concentration on storage in polyolefin containers; type: physicochemical
Method: It was discovered that there is an inverse relationship between the crystallinity of the polyolefin and the amount of WS-12 absorbed into the polyolefin when the pharmaceutical composition is stored in contact with the polyolefin at elevated temperatures (e.g. 40° C.). Crystallinity was measured by determining the melting temperature of the polyolefin by DSC, with higher melting temperatures denoting greater crystallinity.
LDPE 1, LDPE 2, LDPE 3, LDPE 4, and LDPE 5 in Table 12 correspond to LDPEs from different suppliers. Melting point values of the polyolefins were experimentally determined by differential scanning calorimetry (DSC). The densities of the polyolefins were as provided by the manufacturer's product data sheet.

[2] = Chemical stability of WS-12 to typical drug stressors; type: physicochemical; details: typical drug stressors (acid, base, peroxide, heat, light)
[3] = WS-12 content in blow-fill-seal LDPE containers after curing at 40° C. and storage at 25° C.; type: physicochemical; details: Formulation 1 in LDPE BFS units; cured 10 days at 40° C., then stored at 25° C. over 140 days; FIG. 8
Method: The ‘curing’ technique, or process, described herein exploits the temperature dependence of WS-12 absorption into LDPE to yield a product that is stable when stored at 25° C. In some embodiments, the curing technique includes the following steps: (a) producing the BFS containers filled with an ophthalmic pharmaceutical composition provided herein; (b) storing the filled BFS containers at a first temperature (e.g. 40° C.) to drive WS-12 into the LDPE container with the aim of saturating the container walls with WS-12; and (c) subsequently storing the BFS containers at a second temperature (e.g., 25° C.) whereupon further loss of WS-12 to the container walls is stemmed due to the above described saturation process.
(99A long-term 25° C. trace). The first data point of each line represents the content of WS-12 in the BFS article after the curing period (e.g., the first temperature of storage). The amount of WS-12 lost to the LDPE increased as the duration of curing at 40° C. was increased from 1 day to 10 days. […] After a curing period of 10 days at 40° C. (black circles), the content of WS-12 in the BFS units stored at 25° C. was constant over a period of 140 days.

[4] = JECFA, cited from earlier work
[5] = Equilibrium solubility of WS-12 in compositions / evaluation of solubilizers (HPLC); type: physicochemical
Method: As explained above, WS-12 is insoluble in water. Regardless, it was necessary to identify excipients that would provide WS-12 with a solubility of about 200 μM (0.0058%) in an aqueous medium compatible with administration (e.g., topical administration) to a human (e.g., a human eye). Several solubilizers were evaluated, including PEG 400 (polyethylene glycol 400), KOLLIDON 30 (polyvinylpyrrolidone), propylene glycol, TWEEN 80 (polyoxyethylene (20) sorbitan monooleate), KOLLIPHOR® EL or KOLLIPHOR® ELP (polyoxyl 35 castor oil) and tyloxapol (ethylene oxide-formaldehyde-p-octylphenol copolymer).

Percent Loss in WS-12 Concentration After Storage in Polyolefin Container for 2 Weeks at 40° C. ([1]; High Density Polyethylene (HDPE)): 1.3% | Percent Loss in WS-12 Concentration After Storage in Polyolefin Container for 2 Weeks at 40° C. ([1]; Low Density Polyethylene (LDPE 1)): 2.8% | Percent Loss in WS-12 Concentration After Storage in Polyolefin Container for 2 Weeks at 40° C. ([1]; Low Density Polyethylene (LDPE 2)): 2.8% | Percent Loss in WS-12 Concentration After Storage in Polyolefin Container for 2 Weeks at 40° C. ([1]; Low Density Polyethylene (LDPE 3)): 3.3% | Percent Loss in WS-12 Concentration After Storage in Polyolefin Container for 2 Weeks at 40° C. ([1]; Low Density Polyethylene (LDPE 4)): 4.0% | Percent Loss in WS-12 Concentration After Storage in Polyolefin Container for 2 Weeks at 40° C. ([1]; Low Density Polyethylene (LDPE 5)): 4.5% | Percent Loss in WS-12 Concentration After Storage in Polyolefin Container for 2 Weeks at 40° C. ([1]; Polypropylene (PP)): 1.3% | Chemical stability [2]: chemically stable | Content of WS-12 in the BFS units [3]: constant | WS-12 level dissolved ([5]; KOLLIPHOR EL 3% w/v): ≥ 200 µM | Effect on WS-12 solubility ([5]; TWEEN 80, required concentration greater than 4%): significantly increased | solubility ([5]; aqueous medium with solubilizer, aqueous with cosolvent or surfactant or cyclodextrin, thermodynamic from solid, KOLLIDON 30 (polyvinylpyrrolidone), read-out: WS-12 level solubilized): < 200 µM | solubility ([5]; aqueous ophthalmic composition, 2 °C, aqueous with cosolvent or surfactant or cyclodextrin, thermodynamic from solid, in 3% KOLLIPHOR EL, 0.14% hypromellose, 0.78% Na dihydrogen phosphate dihydrate, 0.55% NaCl, pH 7, 2°-8° C., read-out: WS-12 Solubility (mg/mL) 2°-8° C.): 0.041 mg/mL | solubility ([5]; aqueous ophthalmic composition, aqueous with cosolvent or surfactant or cyclodextrin, thermodynamic from solid, in 3% KOLLIPHOR EL, 0.14% hypromellose, 0.78% Na dihydrogen phosphate dihydrate, 0.55% NaCl, pH 7, about 17° C., read-out: WS-12 Solubility (mg/mL) Room Temp (about 17° C.)): 0.055 mg/mL | solubility ([5]; propylene glycol, read-out: WS-12 level solubilized): < 200 µM | solubility ([5]; tyloxapol, read-out: WS-12 level solubilized): < 200 µM
SMILES: COc1ccc(NC(=O)[C@@H]2C[C@H](C)CC[C@H]2C(C)C)cc1 [WS-12, (1R,2S,5R)-2-isopropyl-N-(4-methoxyphenyl)-5-methylcyclohexane-1-carboxamide]
Solubility in avocado oil ([4]; avocado oil): sparingly soluble | Solubility in ethanol ([4]; ethanol): sparingly soluble | Solubility in water ([4]; water): insoluble
